Measured values from patent US11471462B2, “Compositions and methods for detecting and treating diabetes” (THE BROAD INSTITUTE, INC., priority 2016, dated 2022).
Read-outs that look alike come from different tables or passages of the source.

Key:
SLC16A11 [1] = test: CRISPR (SAM) transactivation assay, SLC16A11 expression in 293T cells; assay type: cell-based, human; conditions: Cas9-based transactivators (SAM) targeted near variant
From the text: These experiments are based upon Cas9 based transactivators (SAM or synergistic activation mediators) as described in Konermann et al (Nature 517: 583-588, 2015). Similar experiments based on other types of transactivators that are more finely tuned to distal activation such as those described in Hilton et al. (Nature 33:510-518, 2015) could also be envisioned. Cas9 was used to target transactivators to sites near individual variants in the credible set. Their ability to activate SLC16A11 gene expression was assessed (Table 10).
Cell lines derived from HEK293-T cells were established by lentivirus infection resulting in stable integration of two components of the SAM system namely dCas9-VP64 and MS2-p65-HSF1. The resulting stable cell lines were then plated into 96 well plates and left overnight. The next day, cells were transfected with the guide RNAs (pHKO23), the final component of the SAM system. After an additional 48 hours, cells were harvested for gene expression analyses.

SLC16A11 [2] = test: Compound treatment, SLC16A11 expression by ddPCR in SNU761 cells; assay type: cell-based, human
Description: A small number of the compounds that made the strongest positive connections to the SLC16A11 gene expression signature were selected and tested. […] Methotrexate was also included, which had been annotated as a dihydrofolate reductase inhibitor. SNU761 cells (derived from a human hepatocellular carcinoma) and NCIH716 cells (derived from a human cecum adenocarcinoma), which both express SLC16A11, were treated with the compounds. The same compound concentrations and treatment times were used as in the LINCS dataset experiments. […] For normalization, a different housekeeper gene, HPRT1, was used and obtained similar results with the mTOR inhibitors (FIGS. 14A and 14B).
From the total list of compounds, 59 readily available compounds were selected from the 79 compounds with the largest connectivity scores to the query signature and 20 middle compounds with connectivity scores centered on 0 (FIG. 15A) and then treated SNU761 cells at the same doses and treatment times as were used in the LINCS dataset. It was expected that the top compounds would be enriched for compounds that increased SLC16A11 expression. […] The results were aligned with the expectations (FIG. 15B). Hierarchical clustering of the SLC16 expression profiles generated by the compound treatments are shown by the heat map in FIG. 15C.
SNU761 (human hepatocellular carcinoma) and NCIH716 (human cecum adenocarcinoma) were cultured in RPMI Medium 1640 supplemented with 10% Fetal Bovine Serum (FBS), 100 μg/ml Streptomycin and 100 U/ml Penicillin. Cells were grown in a humidified CO2 incubator, at 37° C.
For the unbiased approach taken to investigate the compounds that connected to the SLC16A11 gene expression signature, compounds were obtained from compound management at the Broad Institute.
SNU761 and NCIH716 cells were plated into 96 well plates at a density of 20,000 cells per well. Hepatocytes were plated into collagen coated 96 well plates (Corning, 354408) at a density of 50,000 cells per well. After 24 hours, cells were treated with compounds at a final concentration of 10 μM or vehicle control for the appropriate amount of time.
At the time of collection, cells in 96 well plates were lysed by directly adding 50 μL of RLT buffer (Qiagen). 75 μL of AMPure XP beads, diluted by a factor of 5 in polyethylene glycol, were then added to bind nucleic acids. One wash with polyethylene glycol was then performed. DNase treatment (Qiagen) was carried out according to the manufacturer's protocol in a final volume of 50 μL. 100 μL of polyethylene glycol was added after the DNase treatment to crowd nucleic acids back onto the beads. Two washes with 80% ethanol were performed and residual ethanol was removed. RNA was then eluted in water.
RNA was DNase treated and converted into cDNA using the High-Capacity RNA-to-cDNA kit (Thermo Fisher Scientific). The following FAM-labeled TaqMan Real-Time PCR assays (Thermo Fisher Scientific) were used to quantify gene expression: SLC16A11 (Hs00601062_g1), SLC16A13 (Hs00416832_m1), SLC16A1 (Hs01560299_m1). The VIC-labeled TaqMan Real-Time assays TBP (Hs00427620_m1) or HPRT1 (Hs02800695_m1) were used for normalization. Droplets were generated and analyzed using a QX200 Droplet Generator and Reader system (BioRad). Data was extracted using QuantaSoft (BioRad) and analyzed using Microsoft Excel.

[3] = SNU761 cells, same doses and treatment times as in the LINCS dataset

Compound	avg_fc (SLC16A11 expression, compound treated vs DMSO treated cells) (SLC16A11 [2]; [3])	further results
rs1698227 (guide 1 TGGTGCTAAGGGGCACACAC; guide 2 TGCTCATTTTCCTCTGCACT; listed as DNA, chemistry not given here; listed as Homo sapiens)		Increases SLC16A11 transcript levels in transactivator assay (SLC16A11 [1]): FALSE
GTACATAATTCAATCCCCGT (chemistry not given here)		Increases SLC16A11 transcript levels in transactivator assay (SLC16A11 [1]): TRUE
TTACAGGCTTGCACCGCGCC (chemistry not given here)		Increases SLC16A11 transcript levels in transactivator assay (SLC16A11 [1]): TRUE
rs193399 (guide 1 TAGAACCAGCTTCTAGGTTC; guide 2 TCCTTCCTGAACCTAGAAGC; listed as DNA, chemistry not given here; listed as Homo sapiens)		Increases SLC16A11 transcript levels in transactivator assay (SLC16A11 [1]): FALSE
TGGCAGTCCCCGCGTCACGT (chemistry not given here)		Increases SLC16A11 transcript levels in transactivator assay (SLC16A11 [1]): TRUE
rs73239895 (guide 1 ACTCCTGCCGGAGGTTCTCG; guide 2 AGGCCCCGAGAACCTCCGGC; listed as DNA, chemistry not given here; listed as Homo sapiens)		Increases SLC16A11 transcript levels in transactivator assay (SLC16A11 [1]): FALSE
TCACGCGCGGCTTGCCGGAT (chemistry not given here)		Increases SLC16A11 transcript levels in transactivator assay (SLC16A11 [1]): TRUE
rs2292351 (guide 1 AGCCTCTGGCTGCTCGCCCG; guide 2 CACCCCGGGCGAGCAGCCAG; listed as DNA, chemistry not given here; listed as Homo sapiens)		Increases SLC16A11 transcript levels in transactivator assay (SLC16A11 [1]): TRUE
rs186568031 (guide 1 GATTTTCACTCTTGTTGCCC; guide 2 TTCACTCTTGTTGCCCAGGC; listed as DNA, chemistry not given here; listed as Homo sapiens)		Increases SLC16A11 transcript levels in transactivator assay (SLC16A11 [1]): FALSE
Clc1ccc(COC(Cn2ccnc2)c2ccc(Cl)cc2Cl)cc1 (stereo not shown) [econazole]	1.178	
OC1CCC(Nc2ncc3nc(Nc4c(F)cc(F)cc4F)n([C@@H]4CCOC4)c3n2)CC1 (stereo partly shown) [CG-930]	1.337	
C[C@@H]1C[C@@H]([C@H](O)CC2CC(=O)NC(=O)C2)C(=O)[C@@H](C)C1 [cycloheximide]	1.243	
O=C1N(c2ccccc2)c2ccccc2C1(Cc1ccncc1)Cc1ccncc1 [linopirdine]	0.8629	
COCC(=O)NC/C=C/c1ccc2ncnc(Nc3ccc(Oc4ccc(C)nc4)c(C)c3)c2c1 [CP-724714]	1.37	
Cc1cn(-c2cc(C(=O)Nc3ccc(C)c(NC(=O)c4ccno4)c3)cc(C(F)(F)F)c2)cn1 [ALW-II-38-3]	0.9734	
COc1cc2nccc(Oc3ccc(NC(=O)Nc4cc(C)on4)c(Cl)c3)c2cc1OC [tivozanib]	1.647	
CC[C@@H]1C(=O)OC[C@@H]1Cc1cncn1C [pilocarpine]	0.7379	
COc1ccccc1OCC(O)CN1CCN(CC(=O)Nc2c(C)cccc2C)CC1 (stereo not shown) [ranolazine]	0.7654	
Nc1ccc(-c2ccc3ncc4ccc(=O)n(-c5cccc(C(F)(F)F)c5)c4c3c2)cn1 [torin-2]	2.843	
Nc1[nH]nc2nnc(-c3c(-c4ccccc4)nn4ccccc34)cc12 [FR-180204]	0.915	

Compound	avg_fc (SLC16A11 expression, compound treated vs DMSO treated cells) (SLC16A11 [2]; [3])	further results
CC(C)OC(=O)c1cc2c(OCC(O)CNC(C)(C)C)cccc2[nH]1 (stereo not shown) [carpindolol]	0.8548	
NS(=O)(=O)c1cc2c(cc1C(F)(F)F)NC(Cc1ccccc1)NS2(=O)=O (stereo not shown) [bendroflumethiazide]	0.7917	
CS(=O)(=O)N1CCN(Cc2cc3nc(-c4cccc5[nH]ncc45)nc(N4CCOCC4)c3s2)CC1 [GDC-0941]	2.079	
C[C@H]1O[C@@H](O[C@H]2[C@@H](O)C[C@H](O[C@H]3[C@@H](O)C[C@H](O[C@H]4CC[C@@]5(C)[C@H](CC[C@@H]6[C@@H]5CC[C@]5(C)[C@@H](C7=CC(=O)OC7)CC[C@]65O)C4)O[C@@H]3C)O[C@@H]2C)C[C@H](O)[C@@H]1O [digitoxin]	1.375	
Nc1ccn([C@H]2CC[C@@H](CO)O2)c(=O)n1 [zalcitabine]	1.01	
O=C(NOCC1CC1)c1ccc(F)c(F)c1Nc1ccc(I)cc1Cl [PD-184352]	1.445	
C[C@H](NC(=O)Cc1cc(F)cc(F)c1)C(=O)N[C@H](C(=O)OC(C)(C)C)c1ccccc1 [DAPT-GSI-IX]	1.286	
CO[C@H]1C[C@@H]2CC[C@@H](C)[C@@](O)(O2)C(=O)C(=O)N2CCCC[C@H]2C(=O)O[C@H]([C@H](C)C[C@@H]2CC[C@@H](OC(=O)C(C)(CO)CO)[C@H](OC)C2)CC(=O)[C@H](C)/C=C(\C)[C@@H](O)[C@@H](OC)C(=O)[C@H](C)C[C@H](C)/C=C/C=C/C=C/1C [temsirolimus]	1.372	
COc1ccc(-c2cc(=O)c3c(OC)c(OC)c(OC)c(OC)c3o2)cc1OC [nobiletin]	1.129	
Cn1cc(C(=O)C(=O)NC2CN3CCC2CC3)c2ccccc21 (stereo not shown) [RS-56812]	0.9914	
COc1ccc2ccc(=O)oc2c1 [herniarin]	0.9563	
O=C(NC(COc1ccc2[nH]c(=O)[nH]c2c1)c1ccccc1)c1cccn(Cc2ccc(F)c(F)c2)c1=O (stereo not shown) [KIN001-244]	1.084	
CN1CCN(C2=Nc3cc(Cl)ccc3Nc3ccccc32)CC1 [clozapine]	0.9466	
CNC(=O)Nc1ccc(-c2nc(N3CC4CCC(C3)O4)c3cnn(C4CCC5(CC4)OCCO5)c3n2)cc1 [WYE-125132]	3.336	
NC(=O)c1ccc(N(C(N)=O)c2c(F)cccc2F)nc1-c1ccc(F)cc1F [VX-702]	0.8683	
O=C(NOC[C@H](O)CO)c1ccc(F)c(F)c1Nc1ccc(I)cc1F [PD-0325901]	2.181	
N#CC(=C(/N)Sc1ccccc1N)/C(C#N)=C(\N)Sc1ccccc1N [U0126]		avg_fc (SLC16A11 expression, compound treated vs DMSO treated cells) (SLC16A11 [2]): 1.885
O=C1OC2(c3ccccc31)c1cc(I)c(O)c(I)c1Oc1c2cc(I)c(O)c1I [erythrosine]	0.649	
CC1(C)C[C@@H]1C(=O)N/C(=C\CCCCSC[C@H](N)C(=O)O)C(=O)O [cilastatin]	0.9371	
bisindolylmaleimide	0.4265	
